Results on 19 compounds are retold here after US5663297A, “Antithrombic peptides” (Hoffmann-La Roche Inc., priority 1989, dated 1997).

The LD50 is the dose expected to kill half of the subjects tested. What is called IC50 is the concentration that gives 50% inhibition. The low end stands for higher potency, the high end for lower potency.

*1 amine or outer side, *2 acyl side, *3 side chain or, on linkers, in order; H or OH if unused. Where a SMILES comes first, the peptide text is derived from it. [ ]: non-standard residue; d: D form. The star is where a group is joined. X1 = O=C(NCCN(CC(=O)[*:2])[*:1])OCc1ccccc1; 1Nal = N[C@@H](Cc1cccc2ccccc12)C(=O)O; Gly(N-2-aminoethyl) = NCCNCC(=O)O; Cbz = O=C(OCc1ccccc1)*

Data set [1] relates to mouse. The data set is described as follows: Acute toxicity, intravenous, mouse. Type of data set: in vivo. The settings on record: intravenously in the mouse. The protocol: The compounds of formula I have a low toxicity. Thus the product of Example 2 has a LD50 of 600 mg/kg intravenously in the mouse.
Data set [2] concerns the target T1, fibrinogen receptor, glycoprotein IIb/IIIa (Homo sapiens, UniProt P05106+P08514).
T1 construct: from tissue
The data set is described as follows: Inhibition of fibrinogen binding to immobilized glycoprotein IIb/IIIa (ELISA). The settings on record: concentration required to inhibit binding of fibrinogen to the immobilized receptor from human blood platelets by 50%. The protocol: The glycoprotein IIb/IIIa is obtained-from Triton X-100 extracts of human blood platelets and purified by lectin affinity chromatography (Analytical Biochemistry 151, 1985, 169-177) and chromatography on an Arg-Gly-Asp-Ser affinity column (Science 231, 1986, 1559-62). The thus-obtained receptor protein is bonded to microtitre plates. The specific binding of fibrinogen to the immobilized receptor is determined with the aid of an ELISA system ("enzyme-linked immunosorbent assay"). The IC50 values hereinafter correspond to that concentration of the test substance which is required to inhibit the binding of fibrinogen to the immobilized receptor by 50%: […]
In general terms: An ELISA detects its analyte on a solid surface through an enzyme-linked reagent.

T1 sequence (P08514 32-887 limits assumed): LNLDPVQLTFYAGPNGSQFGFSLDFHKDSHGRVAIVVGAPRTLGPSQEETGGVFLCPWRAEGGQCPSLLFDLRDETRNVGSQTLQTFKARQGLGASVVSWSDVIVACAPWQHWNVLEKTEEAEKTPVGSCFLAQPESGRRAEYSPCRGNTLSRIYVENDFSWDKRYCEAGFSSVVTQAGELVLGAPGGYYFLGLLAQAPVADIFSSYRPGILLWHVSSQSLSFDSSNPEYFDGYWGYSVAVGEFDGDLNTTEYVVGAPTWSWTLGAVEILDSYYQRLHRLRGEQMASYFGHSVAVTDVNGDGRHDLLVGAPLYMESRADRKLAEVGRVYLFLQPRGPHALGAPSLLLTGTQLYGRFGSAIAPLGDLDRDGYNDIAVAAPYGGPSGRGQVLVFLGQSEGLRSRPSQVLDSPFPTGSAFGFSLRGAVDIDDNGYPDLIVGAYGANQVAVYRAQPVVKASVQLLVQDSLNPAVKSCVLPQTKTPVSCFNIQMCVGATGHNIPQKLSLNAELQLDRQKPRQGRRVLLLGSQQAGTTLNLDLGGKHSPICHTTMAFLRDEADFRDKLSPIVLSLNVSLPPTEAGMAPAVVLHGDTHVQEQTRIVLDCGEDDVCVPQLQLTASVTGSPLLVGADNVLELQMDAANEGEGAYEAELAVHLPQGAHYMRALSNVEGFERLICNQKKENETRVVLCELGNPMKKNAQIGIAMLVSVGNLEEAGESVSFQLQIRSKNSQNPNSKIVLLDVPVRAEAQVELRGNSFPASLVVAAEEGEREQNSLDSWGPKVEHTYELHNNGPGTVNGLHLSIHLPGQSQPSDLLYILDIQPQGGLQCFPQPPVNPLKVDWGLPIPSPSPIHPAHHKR
T1 sequence (P08514 891-1039 partner limits assumed): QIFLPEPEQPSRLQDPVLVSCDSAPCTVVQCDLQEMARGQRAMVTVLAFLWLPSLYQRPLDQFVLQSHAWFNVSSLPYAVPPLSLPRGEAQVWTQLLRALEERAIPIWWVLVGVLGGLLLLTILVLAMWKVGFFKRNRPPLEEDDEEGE
T1 sequence (P05106 27-788): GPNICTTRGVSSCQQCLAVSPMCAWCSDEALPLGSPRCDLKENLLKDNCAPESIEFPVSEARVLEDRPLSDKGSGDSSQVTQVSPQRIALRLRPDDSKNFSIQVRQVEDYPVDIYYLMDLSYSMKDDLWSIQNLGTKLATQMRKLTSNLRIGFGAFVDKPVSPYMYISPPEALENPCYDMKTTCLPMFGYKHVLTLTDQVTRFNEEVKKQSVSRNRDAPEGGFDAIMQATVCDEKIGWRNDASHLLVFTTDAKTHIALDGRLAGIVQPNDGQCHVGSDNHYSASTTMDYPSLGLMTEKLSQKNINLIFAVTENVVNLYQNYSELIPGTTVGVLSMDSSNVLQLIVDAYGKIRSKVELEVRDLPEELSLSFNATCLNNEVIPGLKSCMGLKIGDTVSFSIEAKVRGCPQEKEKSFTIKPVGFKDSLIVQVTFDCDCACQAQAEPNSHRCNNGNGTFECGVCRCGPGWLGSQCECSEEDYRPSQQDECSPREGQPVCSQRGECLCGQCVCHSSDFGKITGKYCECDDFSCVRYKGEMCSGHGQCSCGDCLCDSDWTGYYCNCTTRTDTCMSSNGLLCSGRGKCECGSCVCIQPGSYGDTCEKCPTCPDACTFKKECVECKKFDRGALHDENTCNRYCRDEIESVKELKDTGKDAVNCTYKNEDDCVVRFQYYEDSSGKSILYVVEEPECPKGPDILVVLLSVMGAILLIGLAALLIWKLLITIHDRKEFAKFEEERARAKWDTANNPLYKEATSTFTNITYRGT

In data set [1], `CC(C)[C@H](NC(=O)[C@H](CC(=O)O)NC(=O)CNC(=O)C(N)Cc1ccc(C(=N)N)cc1)C(=O)O` (mixture of isomers) [Example 2, [3-(p-amidinophenyl)-DL-alanyl]-Gly-Asp-Val-OH] showed a median lethal dose (LD50) of 600 mg/kg. The compound also came in with a half-maximal inhibitory concentration (IC50) in data set [2] of 16 nM. `CC(C)[C@H](NC(=O)[C@H](CC(=O)O)NC(=O)CNC(=O)C(Cc1ccc(NC(=N)N)cc1)NC(=O)OC(C)(C)C)C(=O)O` (mixture of isomers) [Example 15, [N-Boc-3-(p-guanidinophenyl)-DL-alanyl]-Gly-Asp-Val-OH] had an IC50 in data set [2] of 80 nM. For `N=C(N)c1ccc(CC(N)C(=O)NCC(=O)N[C@@H](CC(=O)O)C(=O)N[C@@H](Cc2cccc3ccccc23)C(=O)O)cc1` (mixture of isomers) [Example 16, [3-(p-amidinophenyl)-DL-alanyl]-Gly-Asp-Nal(1)-OH], the IC50 in data set [2] was 22 nM. As to `CC(C)[C@H](NC(=O)[C@H](CC(=O)O)NC(=O)CNC(=O)C(Cc1ccc(C(=N)N)cc1)NC(=O)OC(C)(C)C)C(=O)O` (mixture of isomers) [Example 17, [N-Boc-3-(p-amidinophenyl)-DL-alanyl]-Gly-Asp-Val-OH], the half-maximal inhibitory concentration (IC50) in data set [2] was 16 nM. The IC50 values of the last two compounds are within 1.5-fold of each other. For `CC(C)[C@H](NC(=O)[C@H](CC(=O)O)NC(=O)CNC(=O)[C@H](CCCNC(=N)N)NC(=O)CN(CCNC(=O)OCc1ccccc1)C(=O)OCc1ccccc1)C(=O)O` [Example 6, Z-Aeg(Z)-Arg-Gly-Asp-Val-OH] (Cbz-[X1]RGDV-OH), the IC50 in data set [2] turned out to be 150 nM. This IC50 lies about 9.4-fold higher than the previous one. `CC(C)[C@H](NC(=O)[C@H](CC(=O)O)NC(=O)CNC(=O)[C@H](CCCNC(=N)N)NC(=O)CNCCN)C(=O)O` [Example 7, Aeg-Arg-Gly-Asp-Val-OH] (H-[Gly(N-2-aminoethyl)]RGDV-OH): the IC50 in data set [2] was 90 nM. `N=C(N)NCCC[C@H](NC(=O)CNCCN)C(=O)NCC(=O)N[C@@H](CC(=O)O)C(=O)N[C@@H](CO)C(=O)O` [Example 8, Aeg-Arg-Gly-Asp-Ser-OH]: in data set [2], the 50% inhibitory concentration (IC50) is 110 nM. Compound `N=C(N)NCCC[C@H](NC(=O)CNCCN)C(=O)NCC(=O)N[C@@H](CC(=O)O)C(=O)N[C@@H](Cc1cccc2ccccc12)C(=O)O` [Example 10, N-Aeg-Arg-Gly-Asp-Nal(1)-OH] (H-[Gly(N-2-aminoethyl)]RGD[1Nal]-OH) showed a 50% inhibitory concentration (IC50) in data set [2] of 38 nM. In turn, `CC[C@H](C)[C@H](NC(=O)[C@H](CC(=O)O)NC(=O)CNC(=O)[C@H](CCCNC(=N)N)NC(=O)CNCCN)C(=O)O` [Example 11, Aeg Arg- Gly-Asp-Ile-OH] (H-[Gly(N-2-aminoethyl)]RGDI-OH) had a 50% inhibitory concentration (IC50) in data set [2] of 120 nM. Compound `CC(=N)NCCCC[C@H](NC(=O)OC(C)(C)C)C(=O)NCC(=O)N[C@@H](CC(=O)O)C(=O)N[C@H](C(=O)O)C(C)C` [Example 12, [N2-Boc-N6 -(1-iminoethyl)-L-lysyl]Gly-Asp-Val- -OH] registered an IC50 in data set [2] of 110 nM. Turning to `[N-]=[N+]=Nc1ccccc1C(=O)N[C@@H](CCCNC(=N)N)C(=O)NCC(=O)N[C@@H](CC(=O)O)C(=O)Nc1ccccc1C(=O)O` [Example 13, N-[(o-azidobenzoyl)-Arg-Gly-Asp]-anthranilic acid], in data set [2], the IC50 was 110 nM. This lies in the sub-micromolar range. In data set [2], `CC(C)[C@H](NC(=O)[C@H](CC(=O)O)NC(=O)CNC(=O)[C@H](CCCNC1=NC2(O)CCCCC2(O)N1)NC(=O)OC(C)(C)C)C(=O)O` (stereo partly drawn) [Example 14, [N2-Boc-N5-(3a,4,5,6,7,7a-hexahydro-3a,7a-dihydroxy-1H-benzimidazol-2-yl)- L-ornithyl]-Gly-Asp-Val-OH] returned a concentration for half-maximal inhibition (IC50) of 54 nM. For the compound `N=C(N)c1ccc(CCC(=O)NCC(=O)N[C@@H](CC(=O)O)C(=O)N[C@@H](Cc2cccc3ccccc23)C(=O)O)cc1` [Example 19, (p-amidinohydrocinnamoyl)-Gly Asp-Nal(1)-OH], the half-inhibitory concentration (IC50) in data set [2] turned out to be 11 nM. Against the preceding compound, the IC50 is about 4.9-fold lower. `CC(C)[C@H](NC(=O)[C@H](CC(=O)O)NC(=O)CNC(=O)[C@H](N)Cc1ccc(C(=N)N)cc1)C(=O)O` [Example 20, [3-(p-amidinophenyl)-D-alanyl]-Gly-Asp-Val-OH]: the IC50 in data set [2] amounted to 22 nM.

Regarding `CC(C)[C@H](NC(=O)[C@H](CC(=O)O)NC(=O)CNC(=O)CCc1ccc(CN)cc1)C(=O)O` [Example 23, (p-aminomethylhydrocinnamoyl)-Gly-Asp-Val-OH], the IC50 in data set [2] was determined as 210 nM. This IC50 is about 9.5-fold higher than that of the compound before.

Compound `CC(C)[C@H](NC(=O)[C@H](CC(=O)O)NC(=O)CNC(=O)CCc1ccc(C(=N)N)cc1)C(=O)O` [Example 24, (p-amidinohydrocinnamoyl)-Gly-Asp-Val-OH] registered a 50% inhibitory concentration (IC50) in data set [2] of 35 nM. Take `CC(C)[C@H](NC(=O)[C@H](CC(=O)O)NC(=O)CNC(=O)[C@@H](N)Cc1ccc(C(=N)N)cc1)C(=O)O` [Example 25, [3-(p-amidinophenyl)-L-alanyl]-Gly-Asp-Val-OH]: the IC50 in data set [2] was found to be 23 nM. The compound `CC(C)[C@H](NC(=O)[C@H](CC(=O)O)NC(=O)CNC(=O)COc1ccc(C(=N)N)cc1)C(=O)O` [Example 26, (p-amidinophenoxy)acetyl-Gly-Asp Val-OH] had an IC50 in data set [2] of 5 nM. Turning to `CC(C)[C@H](NC(=O)[C@H](CC(=O)O)NC(=O)CNC(=O)Cc1ccc(C(=N)N)cc1)C(=O)O` [Example 27, (p-amidinophenyl)acetyl-Gly-Asp-Val-OH], in data set [2], the IC50 was found to be 1.9 nM.
